Measured values taken from patent US6384077B1, “Highly purified EPA for treatment of schizophrenia and related disorders” (Laxdale Limited, priority 1999, dated 2002).

What was measured:
[1] = tested on: depression; assay: case report: depressed person, Hamilton Depression Rating Scale; assay type: in vivo, human; conditions: 1 g/day 96% ethyl-EPA, after about 3-4 weeks
Source text: Our attention was unexpectedly drawn to the importance of highly purified EPA by our experience with a patient, a depressed women aged 35 years. […] […] […] They continued the EPA-rich oil for a further two months without any further change. […] As a result of this, and of thinking about the evidence relating to the binding of EPA to FACL-4 and presumably to other proteins, we came to the conclusion that it was important for clinical efficacy to administer EPA in a highly purified form for maximum clinical effectiveness.

[2] = tested on: schizophrenic breakdown; conditions: 2 g/day with olanzapine, after about 4 weeks
Source text: (§1) In addition to citalopram they were then given 1 g/day of ethyl-EPA. […] Another case was a young person who dropped out of college with a schizophrenic breakdown.

[3] = tested on: dementia; assay: case report: person with dementia; assay type: in vivo, human; conditions: 4x0.5 g capsules per day, within four weeks
Source text: Dementia: A person developed dementia, probably of Alzheimer type but possibly with multi-infarct contributions because of associated cardiovascular disease. As often occurs they also became withdrawn and depressed but, unfortunately, this state was interrupted by irrational and violent outbursts, usually directed at members of their family, but also sometimes against complete strangers. They were tried on two cholinergic drugs: although these produced a small improvement in their cognitive state they did nothing for their depression, irritability and anger. They were tried on a dose of 4×0.5 g capsules of pure ethyl-EPA, two given in the morning and two in the evening. […] Their family also thought their cognition had improved but this is difficult to be certain of because of their improved mood.

[4] = tested on: schizophrenia; assay: case history: schizophrenia, ethyl-EPA added to haloperidol; assay type: in vivo, human; conditions: 4 g/day in addition to haloperidol, eight weeks
Source text: A person had become ill with schizophrenia. They had florid hallucinations and paranoia, but also withdrew themself from most of their friendships and lived alone. […] They lived alone, ceased to communicate with most of their friends, and went around to town alone and muttering to […]. Their psychiatrist heard about ethyl-EPA and decided to try it in addition to the standard drug. After eight weeks on treatment with 4 g/day their outlook was transformed. […] They were even persuaded to go on holiday with their family where they enjoyed themself and made new friends. The EPA therefore reversed the extreme withdrawal which appeared to have been exaggerated by haloperidol.

[5] = tested on: clozapine-induced hypersalivation; assay: three clozapine-treated patients with hypersalivation; assay type: in vivo, human
Source text: Clozapine is regarded as a particularly effective drug by many psychiatrists but it has a range of severe side effects. From the patient's point of view one of the most troublesome is hypersalivation. This may not sound very serious but the constant flow of large volumes of saliva is in fact very distressing for the patient and for those who are associated with the patient. The mechanism of the hypersalivation is unknown.

[6] = tested on: severe depression; assay: case history: severe depression, ethyl-EPA added to citalopram; assay type: in vivo, human; conditions: 1 g/day in addition to citalopram, after four weeks
Source text: as §1

[7] = tested on: bipolar disorder; assay: case reports: five patients with bipolar disorder; assay type: in vivo, human; conditions: 2 g/day after switch from fish oil
Source text: This provided 1.8-3.6 g of EPA and 1.2-2.4 g of DHA per day. […] They were, however, far from completely normal. When the pure ethyl-EPA became available, they were switched from the fish oil to the pure EPA at a dose of 2 g/day in the form of four 0.5 g soft gelatin capsules. […] In particular they all noted an improvement in something which is difficult to measure by conventional psychiatric rating scales. This is a sense of inner tension or dysphoria, a state which is associated with the illness, but which may be exaggerated or changed by antipsychotic drugs to a state of confused tension, sometimes described as a sense of the brain being replaced by cotton wool, and a difficulty of thinking clearly in a straight line. […] They had not noticed this effect which being treated with the higher dose of EPA in the form of the EPA/DHA mix in fish oil.

## CC/C=C\C/C=C\C/C=C\C/C=C\C/C=C\CCCC(=O)OCC [ethyl-EPA]
[1]
  Hamilton scores: below 6
[2]
  clarity of thinking: thinking more clearly
[3]
  mood and irritability in dementia: remarkable improvement
[4]
  residual hallucinations: residual hallucinations disappeared
[5]
  psychiatric state: substantial improvement in psychiatric state
  salivation: dramatically reduced the salivation to normal levels
[6]
  effect on mood: lightening of mood
[7]
  clinical condition in bipolar disorder: clinical condition improved considerably
  sense of dysphoria, tension and cotton-wool thinking: greatly reduced or disappeared altogether
